Measured values as given in PMC5406237 (Chemical research in toxicology, 2010).
pKi: −log10 of the molar value. Where two headings read alike, the source gives them in different places.

How the values were obtained:
[1] = target: CYP2C9 present in the human liver microsomes (Homo sapiens, UniProt P11712); format: biochemical; details: for Ki fold above the Km for S-warfarin: human liver microsomes, marker Km
recombinant CYP2C9*1 [2] = target: T1, recombinant CYP2C9*1 (Homo sapiens, UniProt P11712); assay: Steady-state inhibition of S-warfarin metabolism by recombinant CYP2C9; format: biochemical
plasma proteins = details: cited from earlier work
Recombinant CYP2C9 = Recombinant CYP2C9 (Homo sapiens, UniProt P11712); assay: P450-Glo IC50 screen of recombinant CYP2C9 activity; format: biochemical; details: relative to racemic warfarin IC50
[3] = target: T2, pooled human liver microsomes (Homo sapiens, UniProt P11712); details: 7-hydroxywarfarin formation
recombinant CYP2C9*1 [4] = target: T1, recombinant CYP2C9*1
[5] = target: T2, pooled human liver microsomes
recombinant CYP2C9*1 [6] = target: T1, recombinant CYP2C9*1; assay: Uninhibited steady-state metabolism of S-warfarin by recombinant CYP2C9; details: S-7-hydroxywarfarin formation
CYP2C9 = details: binds and inhibits CYP2C9, not metabolized; cited from earlier work
[7] = 2.0 mg/mL microsomal protein, marker 7-hydroxywarfarin formation
[8] = results based on S-6-hydroxywarfarin formation

T2 sequence (P11712 whole entry): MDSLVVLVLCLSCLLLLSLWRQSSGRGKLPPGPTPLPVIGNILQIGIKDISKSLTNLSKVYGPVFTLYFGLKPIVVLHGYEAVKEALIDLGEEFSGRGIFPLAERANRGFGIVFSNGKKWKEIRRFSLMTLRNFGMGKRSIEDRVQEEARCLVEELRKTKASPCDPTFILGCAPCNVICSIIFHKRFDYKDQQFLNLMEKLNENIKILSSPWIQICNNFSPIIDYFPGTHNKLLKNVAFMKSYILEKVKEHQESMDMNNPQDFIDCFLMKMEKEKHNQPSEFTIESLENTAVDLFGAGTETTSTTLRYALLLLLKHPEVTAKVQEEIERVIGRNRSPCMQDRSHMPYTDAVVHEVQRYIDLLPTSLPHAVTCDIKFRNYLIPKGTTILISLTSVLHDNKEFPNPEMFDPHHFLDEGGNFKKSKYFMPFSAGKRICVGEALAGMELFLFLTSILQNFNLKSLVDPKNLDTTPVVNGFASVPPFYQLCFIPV
Sequence of CYP2C9 present in the human liver microsomes (P11712 whole entry): as above
Sequence of Recombinant CYP2C9 (P11712 whole entry): as above

For CC(=O)C(O)C(c1ccccc1)c1c(O)c2ccccc2oc1=O (centres unmarked) [10OHWAR, 10-hydroxywarfarin], the “Ki fold lower than the observed microsomal Km for S-warfarin” value [1] was 2.4 fold, the mechanism [1, 7] was “competitive” and the “affinity fold higher than S-warfarin” value (recombinant CYP2C9*1 [2]; abstract statement) was “approximately 3 fold”. For the same molecule, the “Ki fold lower than the Km for S-warfarin” value (recombinant CYP2C9*1 [2]; recombinant CYP2C9) was “approximately 2.5 fold”.

In the case of CC(=O)CC(c1ccccc1)c1c(O)c2ccc(O)cc2oc1=O (centres unmarked) [7OHWAR, 7-hydroxywarfarin], the “fold lower affinity for plasma proteins than warfarin” value (“fold lower affinity” below) (plasma proteins) is given as 3- to 4 fold, the “IC50 fold higher than that observed for warfarin” value (Recombinant CYP2C9) is given as “approximately 8 fold” and the “Ki fold above the Km for S-warfarin” value [1] is given as 8.5 fold. For the same molecule, the mechanism [1, 8] was “competitive” and the mechanism (recombinant CYP2C9*1 [2]; [8]) was “competitive”.

In the case of CC(=O)CC(c1ccccc1)c1c(O)c2cc(O)ccc2oc1=O (centres unmarked) [6OHWAR, 6-hydroxywarfarin], the “fold lower affinity” value (plasma proteins) is listed as 3- to 4 fold, the mechanism [1, 7] is listed as “competitive” and the “Ki fold above the Km for S-warfarin” value [1] is listed as “approximately 32 fold”. For the same molecule, the “inhibition of S-warfarin metabolism” value (recombinant CYP2C9*1 [2]; up to 170 μM inhibitor) was “no inhibition”.

For CC(=O)C[C@@H](c1ccccc1)c1c(O)c2ccccc2oc1=O [S-warfarin], the Km [3] was 5.2 µM, the Vmax [3] was 173 pmol/min/mg protein and the Km (recombinant CYP2C9*1 [4]) was 3.3 µM. For the same molecule, the Km [5] was 7.5 µM, the Km (recombinant CYP2C9*1 [6]) was 2.3 µM and the Vmax (recombinant CYP2C9*1 [6]) was 68 pmol/min/nmol P450.

In the case of CC(=O)CC(c1ccccc1)c1c(O)c2cccc(O)c2oc1=O (centres unmarked) [8OHWAR, 8-hydroxywarfarin], the “fold lower affinity” value (plasma proteins) is listed as 3- to 4 fold, the mechanism [1, 7] is listed as “competitive” and the “Ki fold above the Km for S-warfarin” value [1] is listed as “approximately 3 fold”.

For CC(=O)CC(c1ccc(O)cc1)c1c(O)c2ccccc2oc1=O (centres unmarked) [4′OHWAR, 4′-hydroxywarfarin], the “affinity for human plasma albumin” value (plasma proteins) is given as “comparable to that of warfarin”, the mechanism [1, 7] is given as “competitive” and the “Ki fold above the Km for S-warfarin” value [1] is given as “approximately 3 fold”.
